Consider 15 compounds from patent US20250236608A1, “EGFR INHIBITORS” (Blueprint Medicines Corporation, priority 2022, published 2025).

The IC50 is the concentration that inhibits the measured activity by half.

In assay [1] the target is pEGFR (Tyr1068) in PC-9 cells (Ex19Del) (Homo sapiens (Human), UniProt P00533, DEL746-750). The assay is described as follows: PC-9 pEGFR AlphaLISA assay. The assay is classed as cell-based. Conditions: 4 hours incubation, p-EGFR (Tyr1068) AlphaLISA, read-out: Ext pEGFR_PC-9 Ex19Del IC50. The method in brief: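 First, cells settled overnight in 10% FBS medium. Second, a 10-point, 4-fold series of test agents was applied for 4 h at 37° C. Third, lysates were probed with AlphaLISA acceptor and donor beads, incubated overnight in the dark. Last, IC50 was taken from the dose-response.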
Chain of pEGFR (Tyr1068) in PC-9 cells (Ex19Del) (P00533 other isoform, or with tags, fused parts or gaps del 746-750): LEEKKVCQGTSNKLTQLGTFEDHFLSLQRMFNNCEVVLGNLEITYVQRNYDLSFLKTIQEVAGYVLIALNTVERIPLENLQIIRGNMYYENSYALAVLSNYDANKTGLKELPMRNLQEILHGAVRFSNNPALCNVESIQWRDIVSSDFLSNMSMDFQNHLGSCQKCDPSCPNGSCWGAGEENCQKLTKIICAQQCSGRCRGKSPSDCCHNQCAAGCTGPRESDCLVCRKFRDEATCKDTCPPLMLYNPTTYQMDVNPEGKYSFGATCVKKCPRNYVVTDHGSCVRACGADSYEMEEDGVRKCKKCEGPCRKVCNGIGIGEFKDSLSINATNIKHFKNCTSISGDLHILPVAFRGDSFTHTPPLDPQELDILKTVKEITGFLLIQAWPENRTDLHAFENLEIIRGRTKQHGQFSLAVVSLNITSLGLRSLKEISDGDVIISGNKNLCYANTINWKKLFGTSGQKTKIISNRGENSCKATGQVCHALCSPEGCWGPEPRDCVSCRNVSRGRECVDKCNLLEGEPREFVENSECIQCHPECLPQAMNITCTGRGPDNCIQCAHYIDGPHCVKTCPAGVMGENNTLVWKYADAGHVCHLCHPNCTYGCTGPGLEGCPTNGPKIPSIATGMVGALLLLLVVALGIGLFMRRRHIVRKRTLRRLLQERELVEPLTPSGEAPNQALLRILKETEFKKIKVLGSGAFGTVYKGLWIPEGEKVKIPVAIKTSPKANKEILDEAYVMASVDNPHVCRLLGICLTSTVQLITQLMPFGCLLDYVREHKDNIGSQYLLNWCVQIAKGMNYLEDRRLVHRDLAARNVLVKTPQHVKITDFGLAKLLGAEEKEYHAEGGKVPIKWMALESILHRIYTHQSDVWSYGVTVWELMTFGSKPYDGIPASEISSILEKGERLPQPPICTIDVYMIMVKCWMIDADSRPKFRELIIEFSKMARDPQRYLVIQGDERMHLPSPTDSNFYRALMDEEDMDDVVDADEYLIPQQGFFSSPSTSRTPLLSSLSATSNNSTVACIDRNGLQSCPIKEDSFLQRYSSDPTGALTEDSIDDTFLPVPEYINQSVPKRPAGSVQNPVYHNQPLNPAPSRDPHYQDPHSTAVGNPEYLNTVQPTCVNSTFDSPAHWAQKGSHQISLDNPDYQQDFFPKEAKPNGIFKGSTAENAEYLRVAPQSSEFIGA
On the technique in general: In Alpha technology, singlet oxygen from a donor bead excites a nearby acceptor bead.

For a further assay, the target named is EGFR (d746-750) (Homo sapiens (Human), UniProt P00533, DEL746-750). In words: Biochemical EGFR inhibition assay, EGFR (d746-750). Conditions: Caliper mobility shift; 1.0 mM ATP or ATP Km; read-out: Enz EGFR_Exon19-del746-750 IC50.
Chain of EGFR (d746-750) (P00533 other isoform, or with tags, fused parts or gaps del 1-694/del 746-750 limits assumed): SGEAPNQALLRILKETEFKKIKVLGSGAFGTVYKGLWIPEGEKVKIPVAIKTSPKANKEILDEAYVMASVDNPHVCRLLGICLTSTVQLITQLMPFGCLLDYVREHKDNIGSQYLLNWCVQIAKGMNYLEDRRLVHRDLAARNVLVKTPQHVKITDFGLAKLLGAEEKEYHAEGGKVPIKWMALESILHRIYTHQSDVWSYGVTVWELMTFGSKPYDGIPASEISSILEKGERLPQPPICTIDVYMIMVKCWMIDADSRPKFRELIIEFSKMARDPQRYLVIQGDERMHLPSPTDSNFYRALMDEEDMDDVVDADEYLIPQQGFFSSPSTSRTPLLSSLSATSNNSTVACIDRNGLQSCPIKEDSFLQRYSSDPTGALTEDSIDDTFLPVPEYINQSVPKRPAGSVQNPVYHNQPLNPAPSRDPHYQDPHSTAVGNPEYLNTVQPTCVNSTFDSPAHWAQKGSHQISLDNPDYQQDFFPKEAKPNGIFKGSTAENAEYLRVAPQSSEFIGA
Another assay has as its target EGFR L858R (Homo sapiens (Human), UniProt P00533, L858R). The assay is described as follows: Biochemical EGFR inhibition assay, EGFR L858R. Conditions: Caliper mobility shift; 1.0 mM ATP or ATP Km; read-out: Enz EGFR_L858R IC50.

Chain of EGFR L858R (P00533 25-1210 L858R): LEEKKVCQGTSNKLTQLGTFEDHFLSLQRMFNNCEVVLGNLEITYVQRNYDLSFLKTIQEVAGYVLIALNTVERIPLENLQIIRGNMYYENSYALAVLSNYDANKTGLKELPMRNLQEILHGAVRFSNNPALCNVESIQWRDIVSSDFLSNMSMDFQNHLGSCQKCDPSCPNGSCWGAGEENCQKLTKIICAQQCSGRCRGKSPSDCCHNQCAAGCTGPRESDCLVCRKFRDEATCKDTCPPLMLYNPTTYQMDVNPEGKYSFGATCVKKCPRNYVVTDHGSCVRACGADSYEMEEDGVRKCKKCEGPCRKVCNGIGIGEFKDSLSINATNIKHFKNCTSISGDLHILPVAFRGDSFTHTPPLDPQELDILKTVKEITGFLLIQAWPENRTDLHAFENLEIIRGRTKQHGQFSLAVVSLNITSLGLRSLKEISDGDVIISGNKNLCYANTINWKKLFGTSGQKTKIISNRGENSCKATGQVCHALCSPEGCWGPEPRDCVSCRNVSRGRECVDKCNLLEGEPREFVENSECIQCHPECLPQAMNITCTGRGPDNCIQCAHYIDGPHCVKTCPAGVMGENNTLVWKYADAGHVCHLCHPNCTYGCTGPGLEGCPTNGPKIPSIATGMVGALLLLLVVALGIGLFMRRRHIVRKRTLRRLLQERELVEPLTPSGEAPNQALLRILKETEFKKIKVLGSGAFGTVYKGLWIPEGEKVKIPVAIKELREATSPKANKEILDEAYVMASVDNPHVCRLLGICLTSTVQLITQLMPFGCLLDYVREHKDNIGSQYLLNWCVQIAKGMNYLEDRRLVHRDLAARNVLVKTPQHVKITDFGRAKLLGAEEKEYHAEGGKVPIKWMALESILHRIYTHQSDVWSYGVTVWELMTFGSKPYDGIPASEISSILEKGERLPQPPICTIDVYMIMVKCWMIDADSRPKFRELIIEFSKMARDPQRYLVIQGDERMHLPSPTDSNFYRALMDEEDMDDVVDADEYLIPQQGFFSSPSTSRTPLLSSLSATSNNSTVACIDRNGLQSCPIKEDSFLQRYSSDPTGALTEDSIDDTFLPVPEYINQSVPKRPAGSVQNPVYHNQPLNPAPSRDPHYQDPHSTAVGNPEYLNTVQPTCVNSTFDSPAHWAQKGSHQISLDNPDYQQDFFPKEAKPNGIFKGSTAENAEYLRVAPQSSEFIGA

As for `C[C@@H](O)c1cc2c(-c3cn(CC(F)F)nc3-c3ccccc3)ncnc2cc1-c1cnn(C)c1` (single isomer, unassigned) [Example 445, (R)-1-(4-(1-(2,2-difluoroethyl)-3-phenyl-1H-pyrazol-4-yl)-7-(1-methyl-1H-pyrazol-4-yl)quinazolin-6-yl)ethan-1-ol or (S)-1-(4-(1-(2,2-difluoroethyl)-3-phenyl-1H-pyrazol-4-yl)-7-(1-methyl-1H-pyrazol-4-yl)quinazolin-6-yl)ethan-1-ol], the IC50 came out at 2.7 nM in assay [1], 1 nM at EGFR (d746-750) and 1.5 nM on EGFR L858R.

Take `COc1cc2ncnc(-c3cn(C)nc3-c3ccccc3)c2cc1OC(=O)N1CCN(C)C[C@H]1C` (single isomer, unassigned) [Example 58, 7-methoxy-4-(1-methyl-3-phenyl-1H-pyrazol-4-yl)quinazolin-6-yl (R)-2,4-dimethylpiperazine-1-carboxylate or 7-methoxy-4-(1-methyl-3-phenyl-1H-pyrazol-4-yl)quinazolin-6-yl(S)-2,4-dimethylpiperazine-1-carboxylate]: the figures for the IC50 (in assay [1]; on EGFR (d746-750); at EGFR L858R) were 5.1 nM, 2.5 nM and 4.5 nM, respectively.

Consider `Cn1cc(-c2ccc3c(-c4c[nH]nc4-c4ccccc4F)ncnc3c2)cn1` [Example 443, 4-[3-(2-fluorophenyl)-1H-pyrazol-4-yl]-7-(1-methyl-1H-pyrazol-4-yl)quinazoline], for which the half-inhibitory concentration (IC50) in assay [1] is 0.3 nM; on EGFR (d746-750), 0.4 nM; on EGFR L858R, 0.8 nM.

As for `COc1cc2ncnc(-c3cn(CC(F)F)nc3-c3ccccc3)c2cc1NC(=O)c1cnn(C(C)C)c1` [Example 270, N-(4-(1-(2,2-difluoroethyl)-3-phenyl-1H-pyrazol-4-yl)-7-methoxyquinazolin-6-yl)-1-isopropyl-1H-pyrazole-4-carboxamide], the IC50 in assay [1] is 1.4 nM; on EGFR (d746-750) it was 1.4 nM; at EGFR L858R, 2.1 nM.

`COc1cc2ncnc(-c3cn(CC(F)F)nc3-c3ccccc3)c2cc1[C@@H](C)O` (single isomer, unassigned) [Example 102, (R)-1-(4-(1-(2,2-difluoroethyl)-3-phenyl-1H-pyrazol-4-yl)-7-methoxyquinazolin-6-yl)ethan-1-ol or (S)-1-(4-(1-(2,2-difluoroethyl)-3-phenyl-1H-pyrazol-4-yl)-7-methoxyquinazolin-6-yl)ethan-1-ol]: the IC50 worked out at 4.1 nM in assay [1], 1.2 nM at EGFR (d746-750) and 2 nM on EGFR L858R.

Regarding `COc1cc2ncnc(-c3cn(C)nc3-c3ccccc3)c2cc1OC(=O)N1C[C@@H](C)OC[C@@H]1C` (racemic) [Example 91, trans-rac-7-methoxy-4-(1-methyl-3-phenyl-1H-pyrazol-4-yl)quinazolin-6-yl (2R,5S)-2,5-dimethylmorpholine-4-carboxylate or cis-rac-7-methoxy-4-(1-methyl-3-phenyl-1H-pyrazol-4-yl)quinazolin-6-yl (2S,5S)-2,5-dimethylmorpholine-4-carboxylate], the IC50 in assay [1] was 9.5 nM; on EGFR (d746-750) it was 5.6 nM; on EGFR L858R, 9.3 nM.

`CCn1cc(-c2ncnc3cc(OC)c(NC(=O)c4cnn(C(F)(F)F)c4)cc23)c(-c2ccccc2)n1` [Example 307, N-(4-(1-ethyl-3-phenyl-1H-pyrazol-4-yl)-7-methoxyquinazolin-6-yl)-1-(trifluoromethyl)-1H-pyrazole-4-carboxamide]: the figures for the IC50 (in assay [1]; on EGFR (d746-750); at EGFR L858R) were 1.4 nM, 0.9 nM and 1.7 nM, respectively.

For the compound `COc1cc2ncnc(-c3cn(C)nc3-c3ccccc3)c2nc1NC(=O)C12CC(N(C)C)(C1)C2` [Example 404, 3-(dimethylamino)-N-(7-methoxy-4-(1-methyl-3-phenyl-1H-pyrazol-4-yl)pyrido[3,2-d]pyrimidin-6-yl)bicyclo[1.1.1]pentane-1-carboxamide], the IC50 came out at 3.6 nM in assay [1], 0.7 nM at EGFR (d746-750) and 5.9 nM at EGFR L858R.

On to `CCn1cc(-c2ncnc3cc(OC)c(NC(=O)[C@@]45COC[C@@H]4C5)cc23)c(-c2ccccc2F)n1` (mixture of isomers) [Example 262, (1R,5R)—N-(4-(1-ethyl-3-(2-fluorophenyl)-1H-pyrazol-4-yl)-7-methoxyquinazolin-6-yl)-3-oxabicyclo[3.1.0]hexane-1-carboxamide and (1S,5S)—N-(4-(1-ethyl-3-(2-fluorophenyl)-1H-pyrazol-4-yl)-7-methoxyquinazolin-6-yl)-3-oxabicyclo[3.1.0]hexane-1-carboxamide], for which the figures for the IC50 (in assay [1]; at EGFR (d746-750); at EGFR L858R) were 1.1 nM, 0.6 nM and 1.1 nM, respectively.

Turning to `COc1cc2ncnc(-c3cn(C)nc3-c3ccccc3)c2cc1[C@H]1CN(C)CCO1` (single isomer, unassigned) [Example 129, (S)-2-(7-methoxy-4-(1-methyl-3-phenyl-1H-pyrazol-4-yl)quinazolin-6-yl)-4-methylmorpholine or (R)-2-(7-methoxy-4-(1-methyl-3-phenyl-1H-pyrazol-4-yl)quinazolin-6-yl)-4-methylmorpholine], the IC50 in assay [1] is 2.7 nM; at EGFR (d746-750), 1.1 nM; at EGFR L858R, 4.3 nM.

`COc1cc2ncnc(-c3cn(C)nc3-c3ccccc3F)c2cc1OC(=O)N1CCN(C)C[C@@H]1C` [Example 66, 4-(3-(2-fluorophenyl)-1-methyl-1H-pyrazol-4-yl)-7-methoxyquinazolin-6-yl (S)-2,4-dimethylpiperazine-1-carboxylate]: the IC50 in assay [1] is 5.2 nM; at EGFR (d746-750) it was 2.2 nM; at EGFR L858R, 2.9 nM.

Take `CN(C)C12CC(C(=O)Nc3nc4c(-c5cn(C)nc5-c5ccc(F)cc5)ncnc4cc3OC(F)F)(C1)C2` [Example 466, N-[7-(difluoromethoxy)-4-[3-(4-fluorophenyl)-1-methyl-1H-pyrazol-4-yl]pyrido[3,2-d]pyrimidin-6-yl]-3-(dimethylamino) bicyclo[1.1.1]pentane-1-carboxamide]: the IC50 amounted to 31.2 nM in assay [1], 7.3 nM on EGFR (d746-750) and 39 nM at EGFR L858R.

For `COc1cc2ncnc(-c3cn(C)nc3-c3ccccc3)c2nc1NC(=O)[C@@]12COC[C@@H]1C2` (single isomer, unassigned) [Example 431, (1R,5R)—N-(7-methoxy-4-(1-methyl-3-phenyl-1H-pyrazol-4-yl)pyrido[3,2-d]pyrimidin-6-yl)-3-oxabicyclo[3.1.0]hexane-1-carboxamide or (1S,5S)—N-(7-methoxy-4-(1-methyl-3-phenyl-1H-pyrazol-4-yl)pyrido[3,2-d]pyrimidin-6-yl)-3-oxabicyclo[3.1.0]hexane-1-carboxamide], the IC50 in assay [1] came to 1.2 nM; at EGFR (d746-750) it was 0.6 nM; on EGFR L858R it was 1.4 nM.

Consider `COc1cc2ncnc(-c3cn(C)nc3-c3ccccc3)c2cc1NC(=O)c1ccccc1F` [Example 198, 2-fluoro-N-(7-methoxy-4-(1-methyl-3-phenyl-1H-pyrazol-4-yl)quinazolin-6-yl)benzamide], for which the figures for the IC50 (in assay [1]; at EGFR (d746-750); on EGFR L858R) were 1.1 nM, 0.8 nM and 1.3 nM, respectively.

Take `COc1cc2ncnc(-c3cn(C)nc3-c3ccc(F)cc3)c2cc1NC(=O)c1scnc1C` [Example 304, N-(4-(3-(4-fluorophenyl)-1-methyl-1H-pyrazol-4-yl)-7-methoxyquinazolin-6-yl)-4-methylthiazole-5-carboxamide]: the IC50 in assay [1] was determined as 1.2 nM; at EGFR (d746-750), 1 nM; on EGFR L858R, 1.8 nM.
